The series in a line: Evaluation of restricted permeability of in vitro BBB model with fluorescein sodium (Transwell). The class given is in vitro ADME, mouse. As to conditions: NaFl 10 μg/mL in upper chamber, read-out: permeability coefficient Papp. As for the experimental part:
Experimental method: an in vitro blood-brain barrier model was established to evaluate the permeability of dual-modality nanoprobes. U87-MG cells and bEnd.3 cells were cultured in high glucose DMEM containing 10% fetal bovine serum and 1% penicillin/streptomycin at 37° C. and 5% CO2. A thin layer of collagen solution was evenly coated on the inner side of Transwell poly microporous lipid membrane, the membrane was placed on an ultra-clean table for about 30 min, and it was used after naturally dried. bEnd.3 cells were inoculated into the upper chamber of a 24-well Transwell at a density of 5×10^4 cells/well. Two days later, U87-MG cells were inoculated into the lower chamber of the upper chamber at a density of 1×10^5 cells/well, and the two kind of cells were continued to co-culture for one week.
The permeability of BBB in vitro was evaluated by fluorescein sodium, and a series of standard solutions of fluorescein sodium (NaFl) were prepared with PBS, with the concentrations of 0.05, 0.10, 0.15, 0.20, 0.25, 0.30, 0.35, 0.40, 0.45 and 0.50 μg/mL, respectively. The absorbance value was measured with a multifunctional ELISA reader (the excitation wavelength was set at 485 nm and the detection wavelength was 535 nm). Then the standard curve of NaFl concentration and absorbance value was made. […]

In US20210338842A1, “DUAL-MODALITY NANOPROBE TARGETING GLIOBLASTOMA AND PREPARATION METHOD THEREOF” (West China Hospital of Sichuan University, priority 2020, published 2021) one finds Papp A→B and Papp data, which are given here for one compound.

Take `O=C1OC2(c3ccc(O)cc3Oc3cc(O)ccc32)c2ccccc21` [NaFl, Fluorescein sodium]: the Papp A→B at 10 μg/mL (mouse, BBB model group, 30, 60, 90 min) came to 11.2 ± 0.73 ×10⁻⁶ cm/s. Further, the Papp at 10 μg/mL (small blank chamber (no cells)) was 67.8 ×10⁻⁶ cm/s.
